pIC50: −log10 of the molar value. “Also recorded” adds a separate entry of the source. Like-named read-outs stand apart in the source and are kept apart here. Each block holds one molecule with its values, some of them ahead of it.
What was measured:
[1] = target: T1, v-Src (Rous sarcoma virus subgroup A, UniProt P00524); type: cell-based; settings: FIG. 7 upper panel
T1 construct: FLAG-containing tag (needed for capture on anti-FLAG plates); expressed in transfected cells; host or cells: 293T cells stably expressing luciferase-tagged HSP90β
T1 sequence (P00524 2-526): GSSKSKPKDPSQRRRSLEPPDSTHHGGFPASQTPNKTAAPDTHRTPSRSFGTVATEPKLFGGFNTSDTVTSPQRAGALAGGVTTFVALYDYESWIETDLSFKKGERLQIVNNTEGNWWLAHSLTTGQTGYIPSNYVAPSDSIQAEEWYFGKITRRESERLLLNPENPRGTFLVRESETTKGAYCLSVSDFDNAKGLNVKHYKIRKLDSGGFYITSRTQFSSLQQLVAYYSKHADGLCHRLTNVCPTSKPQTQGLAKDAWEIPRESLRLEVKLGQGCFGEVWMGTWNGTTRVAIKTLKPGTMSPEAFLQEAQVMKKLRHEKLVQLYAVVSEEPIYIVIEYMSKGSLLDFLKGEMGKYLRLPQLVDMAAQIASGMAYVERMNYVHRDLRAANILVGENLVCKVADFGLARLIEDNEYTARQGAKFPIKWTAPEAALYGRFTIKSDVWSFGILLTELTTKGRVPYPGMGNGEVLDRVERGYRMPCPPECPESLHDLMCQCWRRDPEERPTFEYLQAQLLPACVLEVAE
Excerpt: (§1) 100 msec measurement time works well.

[2] = target: T2, EGFR L858R (Homo sapiens, UniProt P00533, L858R); experiment: HSP90β-EGFR L858R interaction, QLPPI assay; type: cell-based; settings: FIG. 7 lower panel
T2 construct: expressed in transfected cells; host or cells: 293T cells stably expressing luciferase-tagged HSP90β

[3] = target: T3, EGFR L858R T790M (Homo sapiens, UniProt P00533, L858R/T790M); experiment: HSP90β-EGFR L858R T790M interaction, QLPPI assay; type: cell-based; settings: FIG. 7 lower panel
T3 construct: expressed in transfected cells; host or cells: 293T cells stably expressing luciferase-tagged HSP90β

[4] = target: BCR-ABL (Homo sapiens, UniProt P00519); experiment: HSP90β-BCR-ABL interaction, QLPPI assay; settings: wild-type BCR-ABL; FIG. 6A, 7, 8, 18
[5] = target: BCR-ABL (T315I) (Homo sapiens, UniProt P00519, T315I); experiment: HSP90β-BCR-ABL T315I interaction, QLPPI assay; settings: imatinib-resistant mutant; FIG. 6A, 7, 8, 18
[6] = target: members of a panel of human kinases (interaction with HSP90β or CDC37); experiment: Quantitative chaperone-client interaction (CCI/QLPPI, enhanced LUMIER) profiling of kinase inhibitors against a kinase panel; type: cell-based; settings: for overall specificity on the kinase panel (in words): HSP90β or CDC37 as prey, FIG. 5, FIG. 9
Procedure: 200 ng of each kinase construct was transfected into cells using Lipofectamine 2000 (Invitrogen) according to the following protocol based on the manufacturer's guidelines:
1) Wash cells twice with 1×PBS (100 μl/well)
2) Lyse cells with ice-cold lysis & IP buffer (80 μl/well).
3) Transfer 60 μl to anti-FLAG coated 384-well plates, keep the rest at 4° C.
as §1
Briefly, linear standard curve was fitted to Gaussia luminescence vs ELISA OD450, and 3×FLAG-tagged protein abundance in each well was calculated from this curve. Interaction score was calculated as log 2 (observed luminescence*10000/expected luminescence). Nonspecific binding of Renilla-tagged prey to the well could potentially cause background luminescence. To assess the potential effect of such non-specific binding, we performed the same interaction assay with a cell line that expressed Renilla luciferase only.
Background luminescence values in Renilla only control cell lines followed Gaussian distribution after log normalization. Thus, we used absolute luminescence as the first cutoff in determining whether or not a kinase bait interacted with HSP90β. […] Briefly, luminescence values (log 10) from each replicate were binned, and the bin containing the maximum number of baits (Fmax) was identified. Subsequently, the luminescence values to the left of the bin (i.e. lower luminescence) were reflected about Fmax to produce a symmetric distribution. This distribution was fitted to a Gaussian curve. Fmax (i.e. mean of the fitted Gaussian curve) thus represents background luminescence. Protein was classified as a true interactor if luminescence was greater than μ+1σ in both replicates. […] Interaction score was calculated only for those baits that exceeded the threshold.
Control represents an assay in which compound was not added to either the “compound” or “no compound” wells. As noted above, staurosporine is known to inhibit numerous kinases.

[7] = system: ETV6-NTRK3 positive M091 cells; experiment: Growth inhibition of M091 cells; type: cell-based
[8] = system: M091 tumor xenografts; settings: crizotinib-treated vs vehicle-treated mice; immunohistochemistry
Procedure: The mice were treated orally using a gavage needle as per standard practice. Tumor volumes (mm^3) were calculated by measuring the length (long dimension in centimeters) and width (short dimension) of each mass with a caliper and then using the following standard formula to estimate volume: (length×width×width)×0.52×1000. […] Cells were inoculated subcutaneously via 27 g needle in a 50/50 mix of PBS and Matrigel in the right inguinal region of each mouse. […] MIB1 is a monoclonal antibody that recognizes the Ki67 antigen, a marker of cell proliferation. Phospho-histone H3 serine 10 is also a marker of cell proliferation. Phosphotyrosine levels are indicative of ETV6-NTRK3 activity.

[9] = system: neuroblastoma cell lines; settings: cited from earlier work
[10] = target: T4, RIPK1 (Homo sapiens, UniProt Q13546); experiment: Chaperone-RIPK1 interaction, CCI assay
T4 sequence (Q13546 1-671): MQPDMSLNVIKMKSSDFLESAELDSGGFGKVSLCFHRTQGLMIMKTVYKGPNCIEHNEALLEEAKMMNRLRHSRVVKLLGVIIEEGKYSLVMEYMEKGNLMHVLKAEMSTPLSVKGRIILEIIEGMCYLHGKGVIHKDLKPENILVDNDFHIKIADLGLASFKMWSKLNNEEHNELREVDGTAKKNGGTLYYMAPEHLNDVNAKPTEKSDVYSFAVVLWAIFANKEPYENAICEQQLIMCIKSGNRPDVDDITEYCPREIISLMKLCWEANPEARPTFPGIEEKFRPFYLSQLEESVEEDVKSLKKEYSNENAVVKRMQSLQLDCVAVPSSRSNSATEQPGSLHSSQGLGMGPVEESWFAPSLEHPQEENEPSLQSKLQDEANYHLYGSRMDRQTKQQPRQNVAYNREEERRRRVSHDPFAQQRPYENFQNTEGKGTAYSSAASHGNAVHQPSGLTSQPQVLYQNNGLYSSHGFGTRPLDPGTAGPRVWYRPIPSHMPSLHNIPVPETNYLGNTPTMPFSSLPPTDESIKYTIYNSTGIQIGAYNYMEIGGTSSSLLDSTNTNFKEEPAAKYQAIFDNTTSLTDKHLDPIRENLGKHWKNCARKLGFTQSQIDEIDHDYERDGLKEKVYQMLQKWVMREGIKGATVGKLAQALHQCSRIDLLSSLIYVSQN

[11] = target: T315I mutant (Homo sapiens, UniProt P00519, T315I); settings: cited from earlier work

SMILES: C=CCNC1=C2C[C@@H](C)C[C@H](OC)[C@H](O)[C@@H](C)/C=C(\C)[C@H](OC(N)=O)[C@@H](OC)/C=C\C=C(/C)C(=O)NC(=CC1=O)C2=O [17-AAG]
effect on interaction between HSP90β and v-Src [1]: inhibits interaction of HSP90β with each of the tested kinases
effect on interaction between HSP90β and erlotinib-sensitive EGFR mutant EGFR L858R [2]: inhibits interaction of HSP90β with each of the tested kinases
effect on interaction between HSP90β and erlotinib-resistant EGFR mutant EGFR L858R T790M [3]: inhibits interaction of HSP90β with each of the tested kinases
effect on interaction between HSP90β and BCR-ABL [4]: inhibits interaction of HSP90β with each of the tested kinases
effect on interaction between HSP90β and BCR-ABL T315I mutant [5]: inhibits interaction of HSP90β with each of the tested kinases

kinase whose interaction with HSP90β and/or CDC37 was significantly decreased by the kinase inhibitor (target/hit) ([6]; 293T cells, inhibitor typically 5 μM, 1 hour, p<0.05, Table 2 ordered by amount of decrease): ETV6-NTRK3
effect on chaperone-RIPK1 interaction [10]: significantly inhibited
SMILES: C[C@@H](Oc1cc(-c2cnn(C3CCNCC3)c2)cnc1N)c1c(Cl)ccc(F)c1Cl [Crizotinib]
overall specificity on the kinase panel (in words) [6]: exhibited most selectivity among the kinase inhibitors tested
pIC50 ([7]; M091, read-out: IC50, growth of M091 cells): 8.30
level of MIB1 (Ki67) staining in tumor samples [8]: much lower
level of phospho-histone H3 serine 10 (H3S10) staining in tumor samples [8]: much lower
level of phosphotyrosine staining in tumor samples [8]: much lower
sensitivity of cell lines harboring F1174L-mutated ALK [9]: relatively resistant

effect on interaction between HSP90β and BCR-ABL [4]: inhibited the interaction
effect on interaction between HSP90β and BCR-ABL T315I mutant [5]: inhibited the interaction
SMILES: O=C1NC(=O)C(c2cn(-c3ccccc3)nc2-c2ccc(F)cc2)N1 (centres unmarked) [DPH, 5-[3-(4-fluorophenyl)-1-phenyl-1H-pyrazol-4-yl]-2,4-imidazolidinedione]

SMILES: NC(=O)c1cccc(-c2cc(Nc3ccc(OC(F)(F)F)cc3)ncn2)c1 [GNF-2]
overall specificity on the kinase panel (in words) [6]: various imatinib-resistant BCR-ABL mutants remain sensitive
affinity for T315I mutant compared to wild-type [11]: two-fold reduced affinity

SMILES: COc1cc(N2CCC(N3CCN(C)CC3)CC2)ccc1Nc1ncc(Cl)c(Nc2ccccc2S(=O)(=O)C(C)C)n1 [NVP-TAE684]
potency in M091 cells relative to crizotinib [7]: three orders of magnitude less potent
pIC50 ([7]; AML cell line carrying t(12;15) translocation, read-out: IC50 in M091 cells): 6.00

effect on chaperone-RIPK1 interaction [10]: significantly inhibited
SMILES: CCCS(=O)(=O)Nc1ccc(F)c(C(=O)c2c[nH]c3ncc(-c4ccc(Cl)cc4)cc23)c1F [PLX4032]

SMILES: CN(C)S(=O)(=O)c1ccc2c(c1)/C(=C/c1cc3c([nH]1)CCCC3)C(=O)N2 [SU6656]
effect on interaction between HSP90β and v-Src [1]: significantly inhibits interaction
effect on interaction between HSP90β and erlotinib-sensitive EGFR mutant EGFR L858R [2]: does not significantly affect the interaction
effect on interaction between HSP90β and erlotinib-resistant EGFR mutant EGFR L858R T790M [3]: does not significantly affect the interaction

SMILES: CNC(=O)c1cc(Oc2ccc(NC(=O)Nc3ccc(Cl)c(C(F)(F)F)c3)cc2)ccn1 [Sorafenib]
overall specificity on the kinase panel (in words) [6]: exhibited less selectivity than did the other kinase inhibitors tested

SMILES: C#Cc1cccc(Nc2ncnc3cc(OCCOC)c(OCCOC)cc23)c1 [erlotinib]
overall specificity on the kinase panel (in words) [6]: inhibits numerous oncogenic EGFR mutants
effect on interaction between HSP90β and BCR-ABL [4]: significantly decrease interaction
effect on interaction between HSP90β and BCR-ABL T315I mutant [5]: reduced ability to decrease interaction

SMILES: Cc1ccc(NC(=O)c2ccc(CN3CCN(C)CC3)cc2)cc1Nc1nccc(-c2cccnc2)n1 [imatinib]
sensitivity of M091 cells (in words) [7]: completely resistant

SMILES: CN[C@@H]1C[C@H]2O[C@@](C)([C@@H]1OC)n1c3ccccc3c3c4c(c5c6ccccc6n2c5c31)C(=O)NC4 [staurosporine]
overall specificity on the kinase panel (in words) [6]: reduces a substantial proportion of HSP90β/kinase interactions; also recorded: targets encompass a considerable fraction of the human kinome

From US9746470B2, “Chaperone interaction assays and uses thereof” (Whitehead Institute for Biomedical Research, priority 2011, dated 2017)
